Reference: ChEMBL document CHEMBL3832761, “MMV Pathogen Box Bioactivity Data” (2017)
In brackets after ≈: the same amount, converted by molar mass.

Legend:
[1] = tested on: Plasmodium falciparum; assay: Antimalarial activity: Asexual Blood Stage Plasmodium falciparum Dd2 IC50 (uM); type: functional, organism-based
[2] = tested on: Plasmodium berghei; assay: Antimalarial activity: Liver Stage Plasmodium berghei sporozoite Luciferase assay: inhibition at 10 uM (%); type: functional
[3] = tested on: HepG2; assay: HepG2 inhibition at 10 uM (%) Cytotoxicity; type: functional; settings: Homo sapiens
[4] = tested on: Plasmodium falciparum; assay: Antimalarial activity: Asexual Blood Stage Plasmodium falciparum 3D7 IC50 (uM); type: functional, organism-based
[5] = tested on: Plasmodium falciparum; assay: Antimalarial activity: Gametocytes Plasmodium falciparum NF54 Gametocytes Stage V: inhibition at 10 uM (%); type: functional
[6] = tested on: HepG2; assay: Cytotoxicity data HepG2 CC20 (uM); type: functional
[7] = tested on: MRC5; assay: MRC5 CC50 (uM) Cytotoxicity; type: functional; settings: Homo sapiens
[8] = tested on: Mycobacterium tuberculosis; assay: AntiMycobacterium tuberculosis activity day 21 in 7H9/2.5mM butyrate/pH6/0.1mM nitrite MIC90 (uM); type: functional; settings: 504 h
[9] = tested on: Mycobacterium tuberculosis; assay: AntiMycobacterium tuberculosis activity Replicating form: Average MIC90 (uM); type: functional
[10] = tested on: Mycobacterium tuberculosis; assay: AntiMycobacterium tuberculosis activity 1-week 7H9/ADC/Tw MIC (uM); type: functional; settings: 168 h
[11] = tested on: Mycobacterium tuberculosis; assay: AntiMycobacterium tuberculosis activity 2-week 7H9/glucose/BSA/Tx MIC (uM); type: functional; settings: 336 h
[12] = tested on: Mycobacterium tuberculosis; assay: (§1) AntiMycobacterium tuberculosis activity day 10 in 7H9/2.5mM butyrate/pH6/0.1mM nitrite MIC90 (uM); type: functional; settings: 240 h
[13] = tested on: Mycobacterium tuberculosis; assay: AntiMycobacterium tuberculosis activity Non-Replicating form: Average MIC90 (uM); type: functional
[14] = tested on: Mycobacterium tuberculosis; assay: AntiMycobacterium tuberculosis activity 2-week 7H9/DPPC/cholesterol/BSA/Tx MIC (uM); type: functional; settings: 336 h
[15] = tested on: Mycobacterium tuberculosis; assay: AntiMycobacterium tuberculosis activity 2-week Alamar Blue 7H9/ADC/Tw MIC (uM); type: functional; settings: 336 h
[16] = tested on: HepG2; assay: HepG2 CC50 (uM) Cytotoxicity; type: functional; settings: Homo sapiens
[17] = tested on: Mycobacterium tuberculosis; assay: AntiMycobacterium tuberculosis activity 1-week GAST/Fe MIC (uM); type: functional; settings: 168 h
[18] = tested on: Mycobacterium tuberculosis; assay: AntiMycobacterium tuberculosis activity 1-week 7H9/glucose/BSA/Tx MIC (uM); type: functional; settings: 168 h
[19] = tested on: Mycobacterium tuberculosis; assay: AntiMycobacterium tuberculosis activity 1-week 7H9/cholesterol/BSA/Tx MIC (uM); type: functional; settings: 168 h
[20] = tested on: Mycobacterium tuberculosis; assay: AntiMycobacterium tuberculosis activity 2-week GAST/Fe MIC (uM); type: functional; settings: 336 h
[21] = tested on: Mycobacterium tuberculosis; assay: as §1; type: functional; settings: 240 h; remark: listed apart in the source
[22] = tested on: Mycobacterium tuberculosis; assay: AntiMycobacterium tuberculosis activity 2-week 7H9/ADC/Tw MIC (uM); type: functional; settings: 336 h
[23] = tested on: Mycobacterium tuberculosis; assay: AntiMycobacterium tuberculosis activity day 21 MIC99 in 7H9/2.5mM butyrate/pH6/0.1mM nitrite MIC99 (uM); type: functional; settings: 504 h
[24] = tested on: Mycobacterium tuberculosis; assay: AntiMycobacterium tuberculosis activity 2-week Alamar Blue 7H9/cholesterol/BSA/Tx MIC (uM); type: functional; settings: 336 h
[25] = tested on: Mycobacterium tuberculosis; assay: AntiMycobacterium tuberculosis activity 1-week 7H9/DPPC/cholesterol/BSA/Tx MIC (uM); type: functional; settings: 168 h

SMILES | IC50 [4] [µM] | MIC90 [8] [µM] | MIC90 [9] [µM] | MIC [10] [µM] | MIC [11] [µM] | MIC90 [12] [µM] | MIC90 [13] [µM] | MIC [14] [µM] | MIC [15] [µM] | CC50 [16] [µM] | MIC [17] [µM] | MIC [18] [µM] | MIC [19] [µM] | MIC [20] [µM] | MIC90 [21] [µM] | MIC [22] [µM] | MIC [23] [µM] | MIC [24] [µM] | MIC [25] [µM] | also measured
O=C(NC1CC1)c1ccc(CSCc2ccccc2Cl)o1 | 1.42 | – | – | – | – | – | – | – | – | – | – | – | – | – | – | – | – | – | – | IC50 [1]: > 2 µM; Inhibition [2]: 96%; inhibition at 10 µM [3]: 33%; Inhibition [5]: 14.9%
O=C(C(Cc1c[nH]c2ccccc12)NS(=O)(=O)c1ccc(Cl)cc1)N1CCCCC1 (configuration not stated) | > 2 | – | – | – | – | – | – | – | – | – | – | – | – | – | – | – | – | – | – | IC50 [1]: 2 µM; Inhibition [2]: 0%; inhibition at 10 µM [3]: 9%; Inhibition [5]: 23%; CC20 [6]: 21.9 µM
O=C(NCCN1CCCC1)c1cc(NCCN2CCOCC2)nc2ccc(Cl)cc12 | 0.1 | – | – | – | – | – | – | – | – | – | – | – | – | – | – | – | – | – | – | CC50 [7]: 33.5 µM; inhibition [2]: Series known to be active; inhibition [5]: Series known to be active
Cc1ccc(-c2cc(C(=O)Nc3cccnc3)c3cc(Br)ccc3n2)cc1 | 0.1 | – | – | – | – | – | – | – | – | – | – | – | – | – | – | – | – | – | – | CC50 [7]: 20 µM; inhibition [2]: Series known to be active; inhibition [5]: Series known to be active
Brc1c(-c2ccc3c(c2)OCO3)nc2ncccn12 | – | 12.5 (≈ 3.98 µg/mL) | 45.1 (≈ 14.4 µg/mL) | 25 (≈ 7.95 µg/mL) | 37 (≈ 11.8 µg/mL) | 1.5 (≈ 0.477 µg/mL) | 27.8 (≈ 8.84 µg/mL) | 25 (≈ 7.95 µg/mL) | 4.7 (≈ 1.5 µg/mL) | > 100 | 0.2 (≈ 0.0636 µg/mL) | 25 (≈ 7.95 µg/mL) | 1.56 (≈ 0.496 µg/mL) | 0.3 (≈ 0.0954 µg/mL) | > 50 | 37 (≈ 11.8 µg/mL) | 50 (≈ 15.9 µg/mL) | 2.3 (≈ 0.732 µg/mL) | 3.13 (≈ 0.996 µg/mL) | –
CCc1ccc([C@@H]2C[C@H](C(F)(F)F)n3ncc(C(=O)NCc4ccc(OC)cc4)c3N2)cc1 | – | 12.5 (≈ 5.73 µg/mL) | 0.24 (≈ 0.11 µg/mL) | 0.78 (≈ 0.358 µg/mL) | 0.78 (≈ 0.358 µg/mL) | 6.25 (≈ 2.87 µg/mL) | 1.13 (≈ 0.518 µg/mL) | 0.3 (≈ 0.138 µg/mL) | 1.56 (≈ 0.715 µg/mL) | 50.6 | 0.1 (≈ 0.0458 µg/mL) | 0.6 (≈ 0.275 µg/mL) | 0.2 (≈ 0.0917 µg/mL) | 0.1 (≈ 0.0458 µg/mL) | > 50 | 1.56 (≈ 0.715 µg/mL) | > 50 | 0.39 (≈ 0.179 µg/mL) | 0.2 (≈ 0.0917 µg/mL) | –
COc1ccccc1OCCCCn1c(C2CC2)nc2ccccc21 | – | 25 (≈ 8.41 µg/mL) | > 100 | > 50 | > 50 | 6.25 (≈ 2.1 µg/mL) | 16.4 (≈ 5.52 µg/mL) | 37 (≈ 12.4 µg/mL) | 19 (≈ 6.39 µg/mL) | 100 | 0.2 (≈ 0.0673 µg/mL) | 37 (≈ 12.4 µg/mL) | 3.13 (≈ 1.05 µg/mL) | 0.6 (≈ 0.202 µg/mL) | 50 (≈ 16.8 µg/mL) | > 50 | > 50 | 4.7 (≈ 1.58 µg/mL) | 9.4 (≈ 3.16 µg/mL) | –
CN1CCN(CCCOc2ncc(Nc3ncc(-c4ccc(C(F)(F)F)c(F)c4)nc3C(N)=O)cn2)CC1 | – | 1.5 (≈ 0.802 µg/mL) | 3.46 (≈ 1.85 µg/mL) | 1.2 (≈ 0.641 µg/mL) | 1.56 (≈ 0.834 µg/mL) | 0.78 (≈ 0.417 µg/mL) | 3.1 (≈ 1.66 µg/mL) | 0.6 (≈ 0.321 µg/mL) | 1.56 (≈ 0.834 µg/mL) | 3.9 | 1.56 (≈ 0.834 µg/mL) | 1.2 (≈ 0.641 µg/mL) | 0.39 (≈ 0.208 µg/mL) | 1.56 (≈ 0.834 µg/mL) | 12.5 (≈ 6.68 µg/mL) | 1.56 (≈ 0.834 µg/mL) | 12.5 (≈ 6.68 µg/mL) | 0.6 (≈ 0.321 µg/mL) | 0.2 (≈ 0.107 µg/mL) | –
O=C(Nc1cccnc1)c1c(O)c2cccc3c2n(c1=O)CC3 | – | 12.5 (≈ 3.84 µg/mL) | 8.35 (≈ 2.57 µg/mL) | 25 (≈ 7.68 µg/mL) | 9.4 (≈ 2.89 µg/mL) | 6.25 (≈ 1.92 µg/mL) | 7.75 (≈ 2.38 µg/mL) | 12.5 (≈ 3.84 µg/mL) | 25 (≈ 7.68 µg/mL) | > 100 | 3.13 (≈ 0.962 µg/mL) | 6.25 (≈ 1.92 µg/mL) | 12.5 (≈ 3.84 µg/mL) | 3.13 (≈ 0.962 µg/mL) | > 50 | 25 (≈ 7.68 µg/mL) | > 50 | 12.5 (≈ 3.84 µg/mL) | 12.5 (≈ 3.84 µg/mL) | –
Cc1ccc2[nH]c(C3CCCNC3)c(-c3ccncc3)c2c1 (configuration not stated) | – | 12.5 (≈ 3.64 µg/mL) | 19.5 (≈ 5.68 µg/mL) | 37 (≈ 10.8 µg/mL) | 50 (≈ 14.6 µg/mL) | 6.25 (≈ 1.82 µg/mL) | 50.5 (≈ 14.7 µg/mL) | 9.4 (≈ 2.74 µg/mL) | 12.5 (≈ 3.64 µg/mL) | 12.7 | 1.56 (≈ 0.455 µg/mL) | 25 (≈ 7.28 µg/mL) | 6.25 (≈ 1.82 µg/mL) | 2.3 (≈ 0.67 µg/mL) | 25 (≈ 7.28 µg/mL) | 50 (≈ 14.6 µg/mL) | 25 (≈ 7.28 µg/mL) | 9.4 (≈ 2.74 µg/mL) | 9.4 (≈ 2.74 µg/mL) | –
